Assay results from BigSolDB 2.1.

O=C(O)c1ccccc1
Details	solubility (mole fraction)
in 2-(2-butoxyethoxy)ethanol, 296.15 K	0.285
in 2-(2-butoxyethoxy)ethanol, 305.15 K	0.304
in 2-(2-butoxyethoxy)ethanol, 309.65 K	0.314
in 2-(2-butoxyethoxy)ethanol, 311.15 K	0.329
in 2-(2-butoxyethoxy)ethanol, 317.15 K	0.356
in 2-(2-butoxyethoxy)ethanol, 321.15 K	0.377
in 2-(2-butoxyethoxy)ethanol, 326.15 K	0.409
in 2-(2-butoxyethoxy)ethanol, 329.65 K	0.431
in 2-(2-butoxyethoxy)ethanol, 334.15 K	0.458
in 2-(2-butoxyethoxy)ethanol, 336.15 K	0.472
in DMAc, 288.65 K	0.469
in DMAc, 293.35 K	0.472
in DMAc, 302.15 K	0.475
in DMAc, 308.65 K	0.483
in DMAc, 311.65 K	0.489
in DMAc, 315.15 K	0.496
in DMAc, 318.15 K	0.505
in DMAc, 320.65 K	0.515
in DMAc, 324.15 K	0.529
in DMAc, 329.15 K	0.548
in cyclohexanone, 286.15 K	0.174
in cyclohexanone, 288.95 K	0.181
in cyclohexanone, 294.15 K	0.197
in cyclohexanone, 299.15 K	0.221
in cyclohexanone, 303.65 K	0.242
in cyclohexanone, 307.95 K	0.265
in cyclohexanone, 316.15 K	0.29
in cyclohexanone, 319.15 K	0.315
in cyclohexanone, 322.15 K	0.337
in cyclohexanone, 326.15 K	0.362
in decalin, 296.15 K	0.0147
in decalin, 301.15 K	0.0163
in decalin, 306.25 K	0.0196
in decalin, 311.05 K	0.0249
in decalin, 318.05 K	0.0355
in decalin, 325.15 K	0.0495
in decalin, 329.25 K	0.0589
in decalin, 332.55 K	0.0687
in decalin, 337.05 K	0.0887
in decalin, 338.65 K	0.103
in diethylene glycol, 294.15 K	0.0746
in diethylene glycol, 298.15 K	0.0995
in diethylene glycol, 302.35 K	0.131
in diethylene glycol, 305.15 K	0.148
in diethylene glycol, 309.35 K	0.183
in diethylene glycol, 314.65 K	0.225
in diethylene glycol, 319.95 K	0.269
in diethylene glycol, 324.15 K	0.3
in diethylene glycol, 327.95 K	0.336
in diethylene glycol, 332.25 K	0.367
in ethylene glycol, 291.65 K	0.0449
in ethylene glycol, 298.15 K	0.0539
in ethylene glycol, 300.95 K	0.0604
in ethylene glycol, 303.15 K	0.0689
in ethylene glycol, 306.65 K	0.0823
in ethylene glycol, 310.15 K	0.097
in ethylene glycol, 314.15 K	0.112
in ethylene glycol, 320.15 K	0.14
in ethylene glycol, 324.15 K	0.155
in ethylene glycol, 330.65 K	0.185
in m-xylene, 296.15 K	0.0649
in m-xylene, 302.15 K	0.0823
in m-xylene, 306.15 K	0.0928
in m-xylene, 312.65 K	0.117
in m-xylene, 315.15 K	0.129
in m-xylene, 320.15 K	0.154
in m-xylene, 323.15 K	0.173
in m-xylene, 330.65 K	0.22
in m-xylene, 334.15 K	0.246
in m-xylene, 336.15 K	0.257
in n-octane, 313.15 K	0.024
in n-octane, 322.35 K	0.033
in n-octane, 325.15 K	0.0365
in n-octane, 329.15 K	0.0448
in n-octane, 334.15 K	0.0578
in n-octane, 338.35 K	0.0718
in n-octane, 342.65 K	0.0865
in n-octane, 345.15 K	0.0955
in n-octane, 348.15 K	0.11
in n-octane, 354.15 K	0.134
in o-xylene, 297.15 K	0.0655
in o-xylene, 300.15 K	0.0735
in o-xylene, 303.15 K	0.0853
in o-xylene, 308.65 K	0.101
in o-xylene, 311.15 K	0.115
in o-xylene, 316.15 K	0.139
in o-xylene, 321.15 K	0.162
in o-xylene, 325.15 K	0.189
in o-xylene, 332.15 K	0.218
in o-xylene, 334.15 K	0.239
in p-xylene, 295.15 K	0.0628
in p-xylene, 299.65 K	0.0743
in p-xylene, 302.15 K	0.0819
in p-xylene, 307.15 K	0.0953
in p-xylene, 311.45 K	0.115
in p-xylene, 320.65 K	0.148
in p-xylene, 323.15 K	0.169
in p-xylene, 326.95 K	0.191
in p-xylene, 331.15 K	0.218
in p-xylene, 335.15 K	0.244
in propionic acid, 291.15 K	0.146
in propionic acid, 294.65 K	0.149
in propionic acid, 300.15 K	0.171
in propionic acid, 304.45 K	0.19
in propionic acid, 308.15 K	0.213
in propionic acid, 314.15 K	0.235
in propionic acid, 317.15 K	0.251
in propionic acid, 322.15 K	0.271
in propionic acid, 325.15 K	0.293
in propionic acid, 330.15 K	0.332
in sulfolane, 305.15 K	0.122
in sulfolane, 312.15 K	0.132
in sulfolane, 314.15 K	0.138
in sulfolane, 318.65 K	0.156
in sulfolane, 325.15 K	0.192
in sulfolane, 329.15 K	0.216
in sulfolane, 333.65 K	0.245
in sulfolane, 338.15 K	0.282
in sulfolane, 343.15 K	0.315
in sulfolane, 345.15 K	0.33
